Measurements from US9399649B2, “Compounds for treating spinal muscular atrophy” (PTC Therapeutics Inc., priority 2012, dated 2016).

Assays:
[1] = tested on: full length SMN2 minigene mRNA containing SMN2 exon 7; experiment: SMN2 minigene mRNA splicing RT-qPCR assay in cultured cells; type: cell-based, human; details: Homo sapiens, HEK293-H; HEK293H cells stably transfected with SMN2-A minigene, 24 hours, 7-point concentration curve; concentration giving 1.5-fold full length SMN2 mRNA vs vehicle; read-out: EC1.5x for production of full length SMN2 mRNA
Protocol: The reverse transcription-quantitative PCR-based (RT-qPCR) assay is used to quantify the level of the full length SMN2 minigene mRNA containing SMN2 exon 7 in a HEK293H cell line stably transfected with said minigene and treated with a test compound.
HEK293H cells stably transfected with the SMN2-A minigene construct described above (10,000 cells/well) are seeded in 200 ut, of cell culture medium (DMEM plus 10% FBS, with 200 μg/mL hygromycin) in 96-well flat-bottom plates and the plate is immediately swirled to ensure proper dispersal of cells, forming an even monolayer of cells. Cells are allowed to attach for at least 4-6 hours. Test compounds are serially diluted 3.16-fold in 100% DMSO to generate a 7-point concentration curve. A solution of test compound (1 μL, 200× in DMSO) is added to each cell-containing well and the plate is incubated for 24 hours in a cell culture incubator (37° C., 5% CO2, 100% relative humidity). 2 replicates are prepared for each test compound concentration. The cells are then lysed in Cells-To-Ct lysis buffer and the lysate is stored at −80° C.
Primer SMN Forward A (SEQ ID NO. 1) hybridizes to a nucleotide sequence in exon 7 (nucleotide 22 to nucleotide 40), primer SMN Reverse A (SEQ ID NO. 2) hybridizes to a nucleotide sequence in the coding sequence of Firefly luciferase, SMN Probe A (SEQ ID NO. 3) hybridizes to a nucleotide sequence in exon 7 (nucleotide 50 to nucleotide 54) and exon 8 (nucleotide 1 to nucleotide 21). The combination of these three oligonucleotides detects only SMN1 or SMN2 minigenes (RT-qPCR) and will not detect endogenous SMN1 or SMN2 genes.
The SMN forward and reverse primers are used at final concentrations of 0.4 μM. The SMN probe is used at a final concentration of 0.15 μM. The GAPDH primers are used at final concentrations of 0.2 μM and the probe at 0.15 μM.
The SMN2-minigene GAPDH mix (15 μL total volume) is prepared by combining 7.5 μL of 2×RT-PCR buffer, 0.4 μL of 25×RT-PCR enzyme mix, 0.75 μL of 20×GAPDH primer-probe mix, 4.0075 μL of water, 2 μL of 10-fold diluted cell lysate, 0.06 μL of 100 μM SMN forward primer, 0.06 μL of 100 μM SMN reverse primer, and 0.225 μL of 100 μM SMN probe.
PCR is carried out at the following temperatures for the indicated time: Step 1: 48° C. (15 min); Step 2: 95° C. (10 min); Step 3: 95° C. (15 sec); Step 4: 60° C. (1 min); then repeat Steps 3 and 4 for a total of 40 cycles.
Each reaction mixture contains both SMN2-A minigene and GAPDH primersprobe sets (multiplex design), allowing simultaneous measurement of the levels of two transcripts.
Two SMN spliced products are generated from the SMN2 minigene. The first spliced product containing exon 7, corresponding to full length SMN2 mRNA, is referred to herein using the term “SMN2 minigene FL.” The second spliced product lacking exon 7 is referred to herein using the term “SMN2 minigene Δ7.”
The increase of SMN2 minigene FL mRNA relative to that in cells treated with vehicle control is determined from real-time PCR data using a modified ΔΔCt method (as described in Livak and Schmittgen, Methods, 2001, 25:402-8). The amplification efficiency (E) is calculated from the slope of the amplification curve for SMN2 minigene FL and GAPDH individually. The abundances of SMN2 minigene FL and GAPDH are then calculated as (1+E)^−Ct, where Ct is the threshold value for each amplicon. The abundance of SMN2 minigene FL is normalized to GAPDH abundance. The normalized SMN2 minigene FL abundance from test compound-treated samples is then divided by normalized SMN2 minigene FL abundance from vehicle-treated cells to determine the level of SMN2 FL mRNA relative to vehicle control.

[2] = tested on: Smn protein; experiment: Smn protein assay in cultured cells (SMN HTRF); type: cell-based, human; details: SMA patient fibroblast cells (GM03813), 48 hours; for EC1.5x for Smn protein expression: 7-point concentration curve, concentration producing 1.5 times Smn protein vs DMSO vehicle; for maximum fold (Fold) increase of Smn protein: 7-point concentration data, relative to vehicle control
Protocol: The SMN HTRF (homogeneous time resolved fluorescence) assay is used to quantify the level of Smn protein in SMA patient fibroblast cells treated with test compounds.
Cells are thawed and cultured in DMEM-10% FBS for 72 hours. Cells are trypsinized, counted and re-suspended to a concentration of 25,000 cells/mL in DMEM-10% FBS. The cell suspensions are plated at 5,000 cells per well in a 96 well microtiter plate and incubated for 3 to 5 hours. […] Test compounds are serially diluted 3.16-fold in 100% DMSO to generate a 7-point concentration curve. 1 μL of test compound solution is transferred to cell-containing wells and cells are incubated for 48 hours in a cell culture incubator (37° C., 5% CO2, 100% relative humidity). Triplicate samples are set up for each test compound concentration. After 48 hours, the supernatant is removed from the wells and 25 μL of the RIPA lysis buffer, containing protease inhibitors, is added to the wells and incubated with shaking at room temperature for 1 hour. 25 μL of the diluent is added and then 35 μL of the resulting lysate is transferred to a 384-well plate, where each well contains 5 μL of the antibody solution (1:100 dilution of anti-SMN d2 and anti-SMN kryptate in SMN reconstitution buffer). The plate is centrifuged for 1 minute to bring the solution to the bottom of the wells, then incubated overnight at room temperature. Fluorescence for each well of the plate at 665 nm and 620 nm is measured on an EnVision multilabel plate reader (Perkin-Elmer).
The normalized fluorescence signal is calculated for each sample, Blank and vehicle control well by dividing the signal at 665 nm by the signal at 620 nm. Normalizing the signal accounts for possible fluorescence quenching due to the matrix effect of the lysate. The ΔF value (a measurement of Smn protein abundance as a percent value) for each sample well is calculated by subtracting the normalized average fluorescence for the Blank control wells from the normalized fluorescence for each sample well, then dividing this difference by the normalized average fluorescence for the Blank control wells and multiplying the resulting value by 100. The ΔF value for each sample well represents the Smn protein abundance from test compound-treated samples. The ΔF value for each sample well is divided by the ΔF value for the vehicle control wells to calculate the fold increase in Smn protein abundance relative to the vehicle control.

Row | Structure (SMILES) | EC (1.5-fold) [1] | EC1.5x for Smn protein expression [2] | maximum fold (Fold) increase of Smn protein [2] | melting point
1 | Cc1nc(Cl)cn2cc(-c3cc4ccc(N5CCN(C)[C@@H](C)C5)cc4c(=O)o3)nc12 [Cpd 112, 3-(6-chloro-8-methylimidazo[1,2-a]pyrazin-2-yl)-7-[(3S)-3,4-dimethylpiperazin-1-yl]-1H-isochromen-1-one] | 1 to 3 µM | ** (an EC1.5× between >1 μM, and ≦3 nM is indicated by two stars (**)) | ***** (a fold increase >1.65 is indicated by five stars (*****)) | 270 to 275 °C
2 | CCc1nc(C)cn2cc(-c3cc4ccc(N5CCN[C@H](C)C5)cc4c(=O)o3)nc12 [Cpd 153, 3-(8-ethyl-6-methylimidazo[1,2-a]pyrazin-2-yl)-7-[(3R)-3-methylpiperazin-1-yl]-1H-isochromen-1-one] | ≤ 0.1 µM | **** (an EC1.5×≦0.3 nM is indicated by four stars (****)) | ***** (a fold increase >1.65 is indicated by five stars (*****)) | 208 to 213 °C
3 | COc1ccc(-c2cc3ccc(N4CCN[C@@H](C)C4)cc3c(=O)o2)cc1F [Cpd 43, 3-(3-fluoro-4-methoxyphenyl)-7-[(3S)-3-methylpiperazin-1-yl]-1H-isochromen-1-one] | ≤ 0.1 µM | **** (an EC1.5×≦0.3 nM is indicated by four stars (****)) | *** (a fold increase between >1.35 and ≦1.5 is indicated by three stars (***)) | 209 to 211 °C
4 | Cc1cn2cc(-c3cc4ccc(N5CCN(C(C)C)CC5)cc4c(=O)o3)cc2c(C)n1 [Cpd 78, 3-(1,3-dimethylpyrrolo[1,2-a]pyrazin-7-yl)-7-[4-(propan-2-yl)piperazin-1-yl]-1H-isochromen-1-one] | ≤ 0.1 µM | – | *** (a fold increase between >1.35 and ≦1.5 is indicated by three stars (***)) | 213 to 215 °C
5 | Cc1cn2cc(-c3cc4ccc(N5CCC(O)CC5)cc4c(=O)o3)nc2c(C)n1 [Cpd 123, 3-(6,8-dimethylimidazo[1,2-a]pyrazin-2-yl)-7-(4-hydroxypiperidin-1-yl)-1H-isochromen-1-one] | 1 to 3 µM | – | * (A maximum fold increase of ≦1.2 is indicated by one star (*)) | 290 to 292 °C
6 | CCc1nc(C)cn2cc(-c3cc4ccc(N5CCN(C)[C@@H](C)C5)cc4c(=O)o3)nc12 [Cpd 155, 7-[(3S)-3,4-dimethylpiperazin-1-yl]-3-(8-ethyl-6-methylimidazo[1,2-a]pyrazin-2-yl)-1H-isochromen-1-one] | ≤ 0.1 µM | **** (an EC1.5×≦0.3 nM is indicated by four stars (****)) | ***** (a fold increase >1.65 is indicated by five stars (*****)) | 233 to 238 °C
7 | CN1CCN(c2ccc3cc(-c4ccccn4)oc(=O)c3c2)CC1 [Cpd 4, 7-(4-methylpiperazin-1-yl)-3-(pyridin-2-yl)-1H-isochromen-1-one] | 3 to 30 µM | – | * (A maximum fold increase of ≦1.2 is indicated by one star (*)) | 174 to 176 °C
8 | O=c1oc(-c2nc3ccccc3s2)cc2ccc(N3CCNCC3)cc12 [Cpd 8, 3-(1,3-benzothiazol-2-yl)-7-(piperazin-1-yl)-1H-isochromen-1-one] | 3 to 30 µM | – | * (A maximum fold increase of ≦1.2 is indicated by one star (*)) | 324 to 326 °C
9 | Cc1cn2cc(-c3cc4ccc(N5CCN(C(C)C)CC5)cc4c(=O)o3)nc2c(C)n1 [Cpd 74, 3-(6,8-dimethylimidazo[1,2-a]pyrazin-2-yl)-7-[4-(propan-2-yl)piperazin-1-yl]-1H-isochromen-1-one] | ≤ 0.1 µM | **** (an EC1.5×≦0.3 nM is indicated by four stars (****)) | ***** (a fold increase >1.65 is indicated by five stars (*****)) | 260 to 262 °C
10 | C[C@@H]1CN(c2ccc3cc(-c4ccc5c(c4)OCCO5)oc(=O)c3c2)C[C@H](C)N1 [Cpd 39, 3-(2,3-dihydro-1,4-benzodioxin-6-yl)-7-[(3R,5S)-3,5-dimethylpiperazin-1-yl]-1H-isochromen-1-one] | 1 to 3 µM | – | * (A maximum fold increase of ≦1.2 is indicated by one star (*)) | 218 to 220 °C
11 | Cc1nc2ccc(-c3cc4ccc(N5CCNCC5)cc4c(=O)o3)cc2s1 [Cpd 103, 3-(2-methyl-1,3-benzothiazol-6-yl)-7-(piperazin-1-yl)-1H-isochromen-1-one] | ≤ 0.1 µM | **** (an EC1.5×≦0.3 nM is indicated by four stars (****)) | **** (a fold increase between >1.5 and ≦1.65 is indicated by four stars (****)) | 271 to 276 °C
12 | O=c1oc(-c2ccsc2)cc2ccc(N3CCNCC3)cc12 [Cpd 2, 7-(piperazin-1-yl)-3-(thiophen-3-yl)-1H-isochromen-1-one] | 0.3 to 1 µM | – | ** (a fold increase between >1.2 and ≦1.35 is indicated by two stars (**)) | 240 °C (dec.)
13 | CCN1[C@H](C)CN(c2ccc3cc(-c4cn5cc(C)nc(C)c5n4)oc(=O)c3c2)C[C@@H]1C [Cpd 147, 3-(6,8-dimethylimidazo[1,2-a]pyrazin-2-yl)-7-[(3R,5S)-4-ethyl-3,5-dimethylpiperazin-1-yl]-1H-isochromen-1-one] | ≤ 0.1 µM | *** (an EC1.5× between >0.3 nM and ≦1 nM is indicated by three stars (***)) | ***** (a fold increase >1.65 is indicated by five stars (*****)) | 253 to 258 °C
